Data on 49 compounds can be found in a melting point compilation (Tetko et al.).

A word on the melting point: it is the temperature of the solid-liquid transition.

`COC(=O)C(C)Sc1ccccc1C(=O)O` (centres undefined) had a melting point of 118 to 120 °C.
In the case of `N#Cc1ccc(S(=O)(=O)Cl)cc1Cl` it was 51 to 53 °C; in that of `Nc1cccc(NC(=O)c2ccncc2)c1`, 185 to 187 °C.
As for `CC1CC(N)=NN1Cc1ccccc1` (centres undefined), the melting point lay in the range of 159 to 161 °C.
`Nc1nc2ccccc2nc1N1CCCC1` displayed a melting point of 149 to 151 °C.
On to `Nc1cc([N+](=O)[O-])ccc1Nc1ccc(F)cc1`, for which the melting point was in the range of 162 to 164 °C.
The compound `CC(C)C1CCC2(CC1)NC(=O)NC2=O` (centres undefined) returned a melting point of 298 to 300 °C.
The result for `CC1=CC(C)=NS(=O)(=O)N1` reads 119 to 121 °C; that for `CN(C)S(=O)(=O)c1ccc2[nH]c(=O)c(=O)[nH]c2c1`, 319 to 321 °C.
In turn, `CN(CC(=O)O)c1cnccn1` displayed a melting point of 170 to 172 °C.
The result for `NC(=O)N1CCC(O)CC1` reads 147 to 149 °C; that for `N#Cc1ccccc1S(=O)(=O)N1CCC(C(=O)O)CC1`, 150 to 152 °C.
The result for `Fc1cccc(-n2nnnc2S)c1` reads 128 to 146 °C; that for `Cc1cccc(NC(=O)CN2CCNCC2)c1C`, 55 to 57 °C.
The result for `CCOC(=O)/C(C#N)=C\Nc1cc(OC)ccc1OC` reads 131 to 133 °C; that for `O=C(O)c1cc2c(s1)CCC2`, 199 to 201 °C; that for `CNc1cc(Cl)cc(CO)c1`, 49 to 51 °C.
`O=Cc1ccc(-c2ccc(C(=O)O)cc2)o1` had a melting point of 313 to 315 °C.
The result for `COC(=O)NC(Cc1ccccc1)C(=O)O` (centres undefined) reads 75 to 77 °C; that for `C#CCNC(=O)Nc1cccc(C#N)c1`, 167 to 169 °C; that for `O=C(O)CCC(=O)c1ccc(Cl)s1`, 122 to 124 °C.
The result for `Cc1nn(C)c(Cl)c1C#N` reads 55 to 57 °C; that for `Cc1cc(C)c(C(=O)CCl)c(C)c1`, 68 to 70 °C.
In the case of `Cc1nc2c(cnn2C(C)C)cc1C(=O)O` it was 166 to 168 °C.
For `O=C(O)C1CCCN1C(=O)Cc1ccccc1` (centres undefined), the melting point fell in the range of 147 to 149 °C.
The result for `CSc1cc(C)ccc1C(=O)O` reads 176 to 178 °C; that for `O=C(O)c1ccc(Sc2ccc(Cl)cc2)cc1`, 203 to 205 °C.
In the case of `CC(NC(=O)CCl)C(=O)O` (centres undefined) it was 125 to 127 °C; in that of `O=C(O)CC1CCc2ccccc21` (centres undefined), 58 to 60 °C.
The result for `COCCNC(N)=S` reads 118 to 120 °C; that for `NC(=O)N1CCCCC1C(=O)O` (centres undefined), 139 to 141 °C.
Turning to `CCOC(=O)c1nc(NCc2ccccc2)sc1C`, the melting point was 98 to 100 °C.
In the case of `CCCCn1c(=O)c(CCC(=O)O)nc2ccccc21` it was 146 to 148 °C; in that of `O=c1[nH]c(S)nc2ccsc12`, 364 to 366 °C.
In the case of `Cc1cc(N)nn1C` it was 49 to 51 °C; in that of `CC(=O)c1cc(C(=O)C(Cl)(Cl)Cl)n(C)c1`, 133 to 135 °C; in that of `O=C(O)c1ccc2c(c1)NC(=O)C1CCCN21` (centres undefined), 250 to 252 °C.
In the case of `Cc1nnc(NCCC(C)C)c2ccccc12` it was 129 to 131 °C.
In turn, `Cc1nnc2[nH]cc(C(=O)NN)cc1-2` yielded a melting point of 289 to 291 °C.
The result for `CCOC(=O)c1c(N)sc(C(=O)OCCOC)c1C` reads 118 to 120 °C; that for `N#Cc1ccc(CBr)c(OC(F)F)c1`, 80 to 82 °C; that for `CCCC(C(=O)O)N1CCN(C(=O)OC(C)(C)C)CC1` (centres undefined), 149 to 151 °C.
The compound `Nc1cccc(C(=O)Nc2cnccn2)c1` displayed a melting point of 135 to 137 °C.
The result for `CC(C)(C)Oc1ncccc1O` reads 86 to 88 °C.
The result for `Cc1cc(C)cc(Nc2nnc(SC(C)C(=O)O)s2)c1` (centres undefined) reads 127 to 129 °C.
The result for `O=C(O)c1cccc(Oc2ccc(Cl)cc2)n1` reads 115 to 117 °C; that for `Cc1nc(-c2c[nH]c(C(=O)O)c2)cs1`, 209 to 211 °C.
`CN(C)c1ccc(S(N)(=O)=O)cc1N` returned a melting point of 150 to 154 °C.
As to `NC(=O)c1cccc(C(=O)O)n1`, the melting point was 249 to 251 °C.
